Assay results as given in patent US12605368B2, “Suppression of neuroinflammation and composition and method therefor” (Kyoto University, priority 2020, dated 2026).

Columns and labels:
[1] = tested on: microglial cells BV-2; assay: Western blotting of BV-2 cells treated with compound; assay type: cell-based; details: time-dependently and dose-dependently, FIG. 1A
Description: (§1) Microglial cell line BV-2 was maintained in high glucose Dulbecco's modified Eagle's medium (DMEM) (Nacalai Tesque) supplemented with 10% fetal bovine serum (Nichirei Bioscienses), 100 U/mL penicillin, and 100 μg/mL streptomycine. Primary hippocampal and cortical neuronal cultures were prepared from embryonic day 18 mice and maintained in Neurobasal medium (Life Technologies) supplemented with 2% B27 supplement, 100 U/mL, penicillin, 100 μg/mL streptomycin, and 0.5 mM L-glutamine. Dopaminergic neuronal cultures were prepared from ventral midbrain of embryonic day 13 mice and maintained in Neurobasal medium (Life Technologies) supplemented with 10% fetal bovine serum, 2% B27 supplement, 10 ng/mL GDNF, 100 U/mL penicillin, and 100 μg/mL streptomycin. For depletion of glial cells, 5 μM cytosine β-D-arabinofuranoside, 10 μM 5-fluorouracil, and 10 μM uridine (all from Sigma-Aldrich) were added at 2-day culture. Mixed glial cultures were obtained from new born murine pups (P1 to P4) and maintained in T75 or T175 flask. Media were changed every 3-4 days until the cells get confluent. Microglia were obtained either by shaking vigorously or Cd11b-positive selection (Invitrogen). For co-culture experiments, murine glial cell cultures were prepared from MGE (Medial Ganglionic Eminence) of embryonic day 13 and cultured in PLL-coated dish. Cultures were passaged twice with trypsin, and used for co-cultured assay with iPSC-derived neurons. 1039A1 iPS cells were established and maintained as described previously (Nakagawa et al., Sci Rep 4, 3594, 2014). […]
Total protein was extracted from cell culture samples using RIPA buffer (Wako) containing protease inhibitor cocktail (Nacalai Tesque) and phosphatase inhibitor cocktail (Nacalai Tesque). After 15 minutes of centrifugation at 15,000 rpm at 4° C., supernatants were collected and protein concentrations were measured using a Pierce 660 nm Protein Assay Kit (Thermo Scientific). […]

[2] = tested on: microglia; assay: cytokine production of microglia upon LPS stimulation (qPCR, ELISA), with Nrf2 siRNA; assay type: cell-based; details: for up-regulation of proinflammatory cytokine gene expression by LPS stimulation: qPCR and ELISA, FIGS. 2A, 2B; for up-regulation of proinflammatory cytokine gene expression by LPS stimulation / induction of expression of several chemokines and iNOS mRNA: LPS stimulation; for induction of expression of several chemokines and iNOS mRNA: FIG. 2A
Description: Total RNA was extracted with RNeasy kit (Qiagen) followed by cDNA synthesis using iScript (Bio-Rad). Quantitative PCRs were carried out with SYBR green ExTaq (TaKaRa). Primers for genes were designed by using PrimerBank (Wang et al., 2012).
Studies were made on whether the compounds 1 and 2 would suppress cytokine production of microglia.
In the cells treated with Nrf2 siRNA, the suppression of cytokine production was not observed. *P<0.05.

[3] = molecular target: DYRK1A (Homo sapiens, UniProt Q13627); assay: in vitro kinase activity assay against DYRK1A; assay type: biochemical
Description: In Vitro Enzyme Activity Assay
The in vitro kinase activity assay was performed as described previously (Ogawa et al., Nat Commun 1, 86, 2010).

[4] = tested on: Nrf2 in Cd11b-positive microglial cells; assay: Nrf2 immunocytochemistry in glial cells (nuclei of Cd11b-positive cells), with p21 siRNA; assay type: cell-based, murine; details: for Nrf2 expression: data not shown; for expression of Nrf2 in Cd11b-positive microglial cells: glial cells, FIGS. 1B and 1C
Description: Cells were plated in 96-well purecoat amine coated plates and treated as desired for each specific experiment. After immunolabeling was complete, automated image acquisition (with twenty-fold magnification of objective lens, 2×2 CCD binning, twenty-five fields per well) and analysis was performed using Opera Phenix (manufactured by PerkinElmer Co., Ltd.) equipped with Harmony software. Image acquisition was performed using a fluorescence microscope (BZ-9000, manufactured by Keyence corporation) or a confocal microscope (SP-8, manufactured by Leica) as well.
Microglial cell line BV-2 was maintained in high glucose Dulbecco's modified Eagle's medium (DMEM) (Nacalai Tesque) supplemented with 10% fetal bovine serum (Nichirei Bioscienses), 100 U/mL penicillin, and 100 μg/mL streptomycine. Primary hippocampal and cortical neuronal cultures were prepared from embryonic day 18 mice and maintained in Neurobasal medium (Life Technologies) supplemented with 2% B27 supplement, 100 U/mL, penicillin, 100 μg/mL streptomycin, and 0.5 mM L-glutamine. Dopaminergic neuronal cultures were prepared from ventral midbrain of embryonic day 13 mice and maintained in Neurobasal medium (Life Technologies) supplemented with 10% fetal bovine serum, 2% B27 supplement, 10 ng/mL GDNF, 100 U/mL penicillin, and 100 μg/mL streptomycin. For depletion of glial cells, 5 μM cytosine β-D-arabinofuranoside, 10 μM 5-fluorouracil, and 10 μM uridine (all from Sigma-Aldrich) were added at 2-day culture. Mixed glial cultures were obtained from new born murine pups (P1 to P4) and maintained in T75 or T175 flask. Media were changed every 3-4 days until the cells get confluent. Microglia were obtained either by shaking vigorously or Cd11b-positive selection (Invitrogen). For co-culture experiments, murine glial cell cultures were prepared from MGE (Medial Ganglionic Eminence) of embryonic day 13 and cultured in PLL-coated dish. Cultures were passaged twice with trypsin, and used for co-cultured assay with iPSC-derived neurons. 1039A1 iPS cells were established and maintained as described previously (Nakagawa et al., Sci Rep 4, 3594, 2014). Induction of dopaminergic precursor cells was performed as described previously (Doi et al., Stem Cell Reports 2, 337-350, 2014, Kikuchi et al., Nature 548, 592-596, 2017). Briefly, hiPS cells 1039A1 were plated on Laminin511, and differentiated in GMEM medium containing 8% KSR, Y27632 (Wako), A-83-01 (Wako), LDN193178 (STEMGENT). Purmorphamine (Wako), FGF8 (Wako, from day 1 to day 7), and CHIR99021 (Wako, from day 3 to day 12) were added. After cell sorting of Corin+ cells, cells were replated onto low attachment 96-well plates for neurosphere cultures and maintained in neurobasal medium with B27 supplement, 2 mM L-glutamine (Invitrogen), 10 ng/mL GDNF, 200 μM ascorbic acid, 20 ng/mL BDNF (all from Wako), and 400 μM dbcAMP (Sigma-Aldrich) for further 2 weeks. To avoid apoptosis, 30 μM of Y27632 (Wako) was added at the initial plating.
Cells were fixed with 4% paraformaldehyde for 10 minutes, followed by permealization with 0.2% TritonX-100 for 10 minutes. After washing in PBS, cells were blocked in 5% normal donkey serum (Jackson ImmunoResearch Laboratories)/1% BSA (SIGMA A7906)/PBS and then labeled with the primary antibodies. After washing with PBS, primary antibodies were labeled with the corresponding fluorescence-conjugated secondary antibodies. Hoechst 33342 was used to detect nuclei.
Cells were visualized with anti-Nrf2 (pseudo-color), Cd11b (magenta, microglia), and GFAP (green, astrocyte) antibodies. Scale bar=25 μm.
Glial cells were treated with the compounds 1 and 2 for indicated periods and at indicated concentrations.

[5] = tested on: mice injected with LPS; assay: LPS-induced neuro-inflammation and neurodegeneration in mice; assay type: in vivo, C57black/6J mice
Description: (§2) C57black/6J mice, 8 to 9-week old, were intraperitoneally injected with LPS (O55:B5) (manufactured by Sigma, L2880) at 1 mg/kg once daily for four days. hiPSC-derived dopaminergic (DA) progenitors were transplanted in striatum of 4-week-old SCID mice. Drug treatment was performed one hour before LPS-injection or iPSC transplantation.
(§3) The compound 1 was initially dissolved in DMSO at a concentration of 100 mg/mL and diluted to desired concentration with 10% Tween 80 (polysorbate 80 (HX2), manufactured by HOF Corporation) in physiological saline solution, and subcutaneously delivered in a volume of 0.05 mL/kg. The compound 2 was suspended in 0.5% carboxymethylcellulose (Nacalai Tesque) and orally administered in a volume of 0.1 mL/kg at desired concentration. Drug-treated animals were anesthetized with isofluorane for blood sampling and subsequently perfused with physiological saline solution. Brain homogenates were prepared using the Beads Crusher μT-12 system (TAITEC) in five-volume of physiological saline solution. Concentration of target compounds or dopamine in serum and brain homogenates were analyzed by LC/MS using an Agilent 6420 Q-TOF mass spectrometer with an Agilent 1290 Nano-flow HPLC system (Agilent Technologies). For measurement of dopamine, 50 mg/mL ascorbic acid was added to avoid oxidization.
Adult mouse brains were perfused with PBS then fixed in 4% paraformaldehyde, and 40-μm sections were cut with a vibratome (Leica) or 20-μm sections with a cryostat (Leica) after equilibrating in 30% sucrose/PBS. After antigen retrieval using HistoOne (Nacalai Tesque), tissues were stained with indicated antibodies.
LPS was intraperitoneally administered to mice to induce neuro-inflammation. Drug (the compound 2) was administered one hour before the LPS injection to the mice. The drug was orally administered at a indicated dose once daily.
Glial activation and cytokine production were evaluated at day 1 after the administration. Degeneration of dopaminergic nerves were evaluated at day 7 and day 14 (FIGS. 4B and 4C). […]
Animals, N=5 to 6, were analyzed regarding each condition. […]

[6] = tested on: iPSC-derived DA neurons transplanted in striatum; assay: transplantation of hiPSC-derived DA neurons into murine striatum; assay type: in vivo, SCID mice; details: four weeks after the transplantation; mice; administered from one hour before surgery for four days
Description: as §2
as §3, with “Brain homogenates were prepared using the Beads Crusher μT-12 system (TAITEC) in five-volume of physiological saline solution.” left out, “For measurement of dopamine, 50 mg/mL ascorbic acid was added to avoid oxidization.” left out
Arrows indicate iPSC-derived cells that are co-labeled by TH or Nurr1 (both are dopaminergic markers). […] The transplanted DA neurons were identified by hNuclei staining and survived iPSC-derived DA neurons were quantified with co-staining of TH and Nurr1 dopaminergic markers. […]

[7] = tested on: hiPSC-derived dopaminergic neuron progenitors; assay: co-culture of hiPSC-derived dopaminergic neuron progenitors with murine glia under H2O2 oxidative stress; assay type: cell-based, human; details: H2O2 treatment
Description: as §1, with “(Invitrogen).” for “(Invitrogen). For co-culture experiments, murine glial cell cultures were prepared from MGE (Medial Ganglionic Eminence) of embryonic day 13 and cultured in PLL-coated dish. Cultures were passaged twice with trypsin, and used for co-cultured assay with iPSC-derived neurons. 1039A1 iPS cells were established and maintained as described previously (Nakagawa et al., Sci Rep 4, 3594, 2014).”
The neuronal survival was evaluated according to the number of human nuclei by immunostaining (FIGS. 5A and 5B).
Dopaminergic markers of Nurr1 and TH were evaluated by qPCR (FIG. 5C). […]

Compound | Nrf2 (Western blotting) [1] | cyclin D1 (Western blotting) [1] | p21 (Western blotting) [1] | up-regulation of proinflammatory cytokine gene expression by LPS stimulation [2] | induction of expression of several chemokines and iNOS mRNA ([2]; qPCR) | suppression of cytokine production ([2]; cells treated with Nrf2 siRNA, qPCR, FIG. 2C) | IC50 [3] [nM] | Nrf2 expression ([4]; control siRNA-treated cells) | expression of Nrf2 in Cd11b-positive microglial cells [4] | Nrf2 expression ([4]; p21 siRNA-treated cells) | loss of dopaminergic neurons (TH-positive cells in SNpc) ([5]; LPS-injected mice, day 7 and day 14, FIGS. 4B and 4C) | cytokine production ([5]; qPCR and ELISA, striatum tissues at day 1, oral once daily, FIGS. 4E and 4F) | glial activation ([5]; qPCR on striatum tissues at day 1 from last LPS injection, oral once daily, FIG. 4D) | survival rate of iPSC-derived DA neurons [6] | survival of DA neurons ([7]; co-culture with glia, FIGS. 5A to 5C) | protection of neurons ([7]; without glia)
c1cncc(-c2ccc3[nH]ncc3c2)c1 [Compound 1] | up-regulated | up-regulated | up-regulated | suppressed effectively | also suppressed | not observed | 77 | increased | induced | did not increase |  |  |  |  |  | 
CNC1/C(=C/C(C)=O)Sc2ccc3occc3c21 (stereo not shown) [Compound 2] |  |  |  | suppressed effectively | also suppressed |  | 32.9 | increased | induced | did not increase | rescued | suppressed | suppressed | improves | increased depending on the added amount | did not occur
